Experiments:
[1] = cited from earlier work
GL261 glioma = experiment: Survival in syngeneic orthotopic highly invasive GL261 glioma mouse model; type: in vivo, C57BL/6 mice
SB28 glioma [2] = experiment: Survival in syngeneic orthotopic SB28 glioma model in T- and B-cell deficient RAG1 knockout mice; type: in vivo, C57BL/6 RAG1 knockout mice
SB28 glioma [3] = experiment: Survival in syngeneic orthotopic SB28 glioma mouse model; type: in vivo, C57BL/6 mice
[4] = twenty-nine patients, doses from 0.01 to 0.3 mg/kg; cited from earlier work
[5] = Log-rank (Mantel-Cox) analysis, n=8-10 mice per group

| Molecule | water solubility (in words) [1] | median survival increase versus control (GL261 glioma; GL261 intra-cranial, C57BL/6 mice, same treatment schedule as Examples 1 and 2) [%] | survival of GL261 glioma bearing mice (in words, FIG. 3) (GL261 glioma; Log-rank (Mantel-Cox) analysis, n=10 mice per group) | median survival increase, less than measured in the combination regimen (GL261 glioma; single agent versus combination, GL261, C57BL/6 mice) [%] | survival of SB28 glioma bearing immunodeficient (RAG1 KO) mice (in words, FIG. 2) (SB28 glioma [2]; [5]) | median survival increase versus control (SB28 glioma [2]; SB28 intra-cranial, RAG1 KO mice, same treatment schedule as Example 1) [%] | median survival increase, less than measured in the combination regimen (SB28 glioma [2]; single agent versus combination, SB28, RAG1 KO mice) [%] | survival of SB28 glioma bearing mice (in words, FIG. 1) (SB28 glioma [3]; [5]) | median survival increase versus control (SB28 glioma [3]; SB28 intra-cranial, C57BL/6 mice, BAL101553 25 mg/kg orally daily day 5-9, 12-16, 19-23, 26-30, anti-CD40 antibody 100 μg per animal IP days 7, 12, 16) [%] | median survival increase, less than in the combination regimen (SB28 glioma [3]; single agent versus combination, SB28, C57BL/6 mice) [%] | maximum tolerated dose (MTD) [4] [mg/kg] |
| --- | --- | --- | --- | --- | --- | --- | --- | --- | --- | --- | --- |
| N#CCCNc1nonc1-c1nc2ccccc2n1CC(=O)c1ccc(NC(=O)[C@@H](N)CCCCN)cc1 [BAL101553, (S)-2,6-Diamino-hexanoic acid [4-(2-{2-[4-(2-cyano-ethylamino)-furazan-3-yl]-benzoimidazol-1-yl}-acetyl)-phenyl]-amide] | highly water-soluble | 18 | do not show any significant prolongation of survival | 25 | statistically significant, but smaller survival benefit than the combined regimen | 33 | 23 | statistically significant but smaller survival benefit than the combined regimen | 55 | 26 | – |
| CP-870,893: fully human IgG2 agonistic CD40 antibody developed by Pfizer | – | – | – | – | – | – | – | – | – | – | 0.2 |
